# Test results published in patent US20040068015A1, “Remedies for diseases due to stenotic lesions of blood vessel” (priority 2003, published 2004).
# Tests used:
# [1] = tested on: blood vessel smooth muscle cells; experiment: Effect to inhibit migration of blood vessel smooth muscle cells (histone H1 (+) cells), hamster blood vessel stricture model; format: in vivo; details: oral, twice a day, 20 mg/kg/day; 3, 5 and 7th days after carotid injury; in comparison with the control group
# Protocol: (§1) Preparation of Hamster Blood Vessel Stricture Model
# (§2) Male hamsters (Gold, SLC, Japan; 40 to 50 g) were allowed to feed on 0.5% cholesterol feed for 4 weeks to increase the LDL value to 4 to 6 times higher than that of normal hamsters. Each hamster was anesthetized with pentobarbital (50 mg/kg), and its carotid inner membrane was peeled using 2FG catheter (Portex) whose tip had been roughly shaved.
# (3) Effect to Inhibit Migration of Blood Vessel Smooth Muscle Cells
# Administration of the drug to be tested and BrdU was carried out in the same manner in the above (2).
# The injured blood vessels were taken out from the hamsters on 3, 5 and 7th days after the carotid injury. Each blood vessel was washed with PBS and put into 0.3% hydrogen peroxide/cold methanol solution. The sample was incubated for 45 minutes in 5% goat serum diluted with 1% BSA-containing PBS to prevent nonselective linkage of protein. This was incubated for 60 minutes in 1% BSA-containing PBS using a histone H1 monoclonal antibody. Thereafter, each section was incubated for 45 minutes using 1% goat anti-mouse IgG antibody diluted with 1% BSA-containing PBS. By measuring the number of histone H1 (+) cells (cells/mm^2), migration of smooth muscle cells from intermediate membrane to inner membrane was evaluated.
# [2] = Toxicity, single oral administration using rats; format: in vivo
# Protocol: The toxicity of the compounds of the present invention is very low and therefore, the compounds may be considered safe for pharmaceutical use. For example, the minimal lethal dose by single oral administration of N-hydroxy-5-ethoxymethyloxy-2(S)-methyl-4(S)-(4-phenoxybenzoyl)aminopentanamide using rats was 2000 mg/kg.
# [3] = tested on: blood vessel smooth muscle cells; experiment: Effect to inhibit growth of blood vessel smooth muscle cells (BrdU labeling index), hamster blood vessel stricture model; format: in vivo; details: oral, twice a day, 20 mg/kg/day; 7th day after the injury
# Protocol: as §1, §2
# (2) Effect to Inhibit Growth of Blood Vessel Smooth Muscle Cells
# The drug to be tested, N-hydroxy-5-ethoxymethyloxy-2(S)-methyl-4(S)-(4-phenoxybenzoyl)aminopentaneamide represented by the above formula (II), was orally administered once before the blood vessel inner membrane injury, and then it was orally administered twice a day (20 mg/kg/day). 5-Bromo-2-deoxy-uridine (BrdU: 50 mg/kg) was injected by subcutaneous injection 1, 8, 16 or 24 hours before taking out the inner membrane-injured carotid from each hamster.
# After the carotid injury, the injured blood vessels were taken out on the 1st and 7th days to prepare frozen samples. BrdU positive cells were stained with a mouse monoclonal antibody (SIGMA) and then with a peroxidase-conjugated goat anti-mouse IgG antibody and detected with diaminobenzidine (DAB). […] The BrdU labeling index of intermediate membrane and newly formed inner membrane was calculated by the following formula: [formula]
# [4] = tested on: smooth muscle cells; details: literature report; cited from earlier work
Compound,number of smooth muscle cells on the surface of inner membrane (migration; histone H1 (+) cells) [1],minimal lethal dose [2] [mg/kg],inhibition of growth of blood vessel smooth muscle cells (BrdU labeling index) [3],growth of smooth muscle cells [4],migration of smooth muscle cells [4]
"CCOCOC[C@H](C[C@H](C)C(=O)NO)NC(=O)c1ccc(Oc2ccccc2)cc1 [formula (II), N-hydroxy-5-ethoxymethyloxy-2(S)-methyl-4(S)-(4-phenoxybenzoyl)aminopentaneamide]",significantly reduced,2000,significantly inhibited,,
"CNC(=O)[C@H](Cc1ccccc1)NC(=O)[C@H](CC(C)C)[C@H](CSc1cccs1)C(=O)NO [BB94, 3(S)-(N-hydroxycarbamoyl)-2(R)-isobutyl-4-(2-thienylthio)butynyl-L-phenylalanine methylamide]",,,,inhibits migration and growth of smooth muscle cells dose-dependently,inhibits migration and growth of smooth muscle cells dose-dependently
"CNC(=O)[C@H](Cc1c[nH]c2ccccc12)NC(=O)[C@H](CC(=O)NO)CC(C)C [GM6001, 3-(N-hydroxycarbamoyl)-2(S)-isobutylpropionyl-L-tryptophan methylamide]",,,,,inhibits migration of smooth muscle cells
